According to patent US20250304576A1 (Cancer Research Technology Limited, priority 2022, published 2025):

Key:
Recombinant IKKα = target: T1, Recombinant IKKα (Homo sapiens, UniProt O15111); test: DELFIA IKKα kinase assay (apparent Ki, Cheng-Prusoff); format: biochemical; conditions: DELFIA assay (first line of an example)
T1 construct: purchased Millipore, Dundee, UK
T1 sequence (O15111 1-745): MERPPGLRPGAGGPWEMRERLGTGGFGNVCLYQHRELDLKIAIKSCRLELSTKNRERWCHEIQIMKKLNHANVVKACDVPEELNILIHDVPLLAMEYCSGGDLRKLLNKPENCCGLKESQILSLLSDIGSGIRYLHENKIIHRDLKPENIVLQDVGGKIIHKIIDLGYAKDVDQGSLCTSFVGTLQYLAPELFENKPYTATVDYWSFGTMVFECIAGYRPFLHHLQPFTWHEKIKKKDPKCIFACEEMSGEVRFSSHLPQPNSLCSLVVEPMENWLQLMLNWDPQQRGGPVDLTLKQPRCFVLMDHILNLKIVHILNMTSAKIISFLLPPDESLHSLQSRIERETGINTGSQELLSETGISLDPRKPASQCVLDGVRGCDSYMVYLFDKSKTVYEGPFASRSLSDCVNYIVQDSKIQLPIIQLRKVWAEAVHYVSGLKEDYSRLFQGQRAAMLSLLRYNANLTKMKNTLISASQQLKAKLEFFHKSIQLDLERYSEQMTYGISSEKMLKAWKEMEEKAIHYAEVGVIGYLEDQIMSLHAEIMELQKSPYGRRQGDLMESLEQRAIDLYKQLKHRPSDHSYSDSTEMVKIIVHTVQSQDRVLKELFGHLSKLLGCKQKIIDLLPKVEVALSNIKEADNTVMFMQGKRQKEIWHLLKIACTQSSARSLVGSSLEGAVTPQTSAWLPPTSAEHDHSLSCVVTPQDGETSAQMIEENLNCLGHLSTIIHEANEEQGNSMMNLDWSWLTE
Procedure, shortened: (§1)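 Recombinant IKKα or IKKβ (37 nM) with 0.375 μM biotinylated IκB-α (Ser32) peptide and 40 μM ATP in 40 mM Tris-HCl pH 7.5, 20 mM MgCl2, 60 min at 30° C. Phospho-substrate captured on streptavidin and detected by anti-phospho-IκB-α plus europium anti-mouse IgG time-resolved fluorescence; apparent Ki via Cheng-Prusoff.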

Recombinant IKKβ = target: T2, Recombinant IKKβ (Homo sapiens, UniProt O14920); test: DELFIA IKKβ kinase assay (apparent Ki, Cheng-Prusoff); format: biochemical; conditions: DELFIA assay (first line of an example)
T2 construct: purchased Millipore, Dundee, UK
T2 sequence (O14920 1-756): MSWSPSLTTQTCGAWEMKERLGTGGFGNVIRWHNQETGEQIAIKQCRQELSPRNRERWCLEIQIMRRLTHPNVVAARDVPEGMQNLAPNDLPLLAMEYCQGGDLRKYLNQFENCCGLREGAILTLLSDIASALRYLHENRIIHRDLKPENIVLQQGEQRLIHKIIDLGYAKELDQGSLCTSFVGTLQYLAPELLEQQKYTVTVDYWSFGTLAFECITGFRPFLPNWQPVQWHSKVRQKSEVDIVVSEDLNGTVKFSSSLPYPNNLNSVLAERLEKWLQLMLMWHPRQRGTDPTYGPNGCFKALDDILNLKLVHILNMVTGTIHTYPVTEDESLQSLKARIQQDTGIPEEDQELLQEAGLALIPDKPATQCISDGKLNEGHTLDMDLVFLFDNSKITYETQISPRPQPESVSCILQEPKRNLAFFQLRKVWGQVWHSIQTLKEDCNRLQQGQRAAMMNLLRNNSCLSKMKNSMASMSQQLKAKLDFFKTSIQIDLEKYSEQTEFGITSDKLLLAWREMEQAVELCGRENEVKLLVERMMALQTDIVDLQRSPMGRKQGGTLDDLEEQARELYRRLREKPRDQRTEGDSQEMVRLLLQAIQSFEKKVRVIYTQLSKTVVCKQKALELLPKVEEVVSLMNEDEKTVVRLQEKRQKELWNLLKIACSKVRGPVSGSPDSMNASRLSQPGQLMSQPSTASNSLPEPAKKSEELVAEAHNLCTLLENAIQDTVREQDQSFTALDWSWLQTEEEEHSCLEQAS
Procedure, shortened: as §1

SMILES	Ki (Recombinant IKKα)	Ki (Recombinant IKKβ)
Nc1n[nH]c2ccc(-c3ccnc4[nH]c(CC5CCN(Cc6ccccc6)CC5)cc34)cc12 [Example 273, 5-(2-((1-benzylpiperidin-4-yl)methyl)-1H-pyrrolo[2,3-b]pyridin-4-yl)-1H-indazol-3-amine]	5 nM	200 nM
Nc1n[nH]c2c(Cl)cc(-c3ccnc4[nH]c(C(=O)NCCN5CCCCC5)cc34)cc12 [Example 274, 4-(3-Amino-7-chloro-1H-indazol-5-yl)-N-(2-(piperidin-1-yl)ethyl)-1H-pyrrolo[2,3-b]pyridine-2-carboxamide]	8 nM	126 nM
Nc1n[nH]c2c(Cl)cc(-c3ccnc4[nH]c(CC5CCCCC5)cc34)cc12 [Example 275, 7-Chloro-5-(2-(cyclohexylmethyl)-1H-pyrrolo[2,3-b]pyridin-4-yl)-1H-indazol-3-amine]	37 nM	376 nM
Nc1n[nH]c2c(Cl)cc(-c3ccnc4[nH]c(CN5CCOCC5)cc34)cc12 [Example 276, 7-Chloro-5-(2-(morpholinomethyl)-1H-pyrrolo[2,3-b]pyridin-4-yl)-1H-indazol-3-amine]	4 nM	70 nM
Nc1n[nH]c2c(Cl)cc(-c3ccnc4[nH]c(CCN5CCOCC5)cc34)cc12 [Example 277, 7-Chloro-5-(2-(2-morpholinoethyl)-1H-pyrrolo[2,3-b]pyridin-4-yl)-1H-indazol-3-amine]	1 nM	51 nM
CC(C)(C)C#Cc1cc(-c2ccnc3[nH]c(CC4CCCCC4)cc23)cc2c(N)n[nH]c12 [Example 278, 5-(2-(Cyclohexylmethyl)-1H-pyrrolo[2,3-b]pyridin-4-yl)-7-(3,3-dimethylbut-1-yn-1-yl)-1H-indazol-3-amine]	380 nM	> 10000 nM
CC(C)(C)C#Cc1cc(-c2ccnc3[nH]c(CCN4CCOCC4)cc23)cc2c(N)n[nH]c12 [Example 280, 7-(3,3-Dimethylbut-1-yn-1-yl)-5-(2-(2-morpholinoethyl)-1H-pyrrolo[2,3-b]pyridin-4-yl)-1H-indazol-3-amine]	30 nM	360 nM
Nc1n[nH]c2c(C#Cc3ccccc3)cc(-c3ccnc4[nH]c(CCN5CCOCC5)cc34)cc12 [Example 281, 5-(2-(2-Morpholinoethyl)-1H-pyrrolo[2,3-b]pyridin-4-yl)-7-(phenylethynyl)-1H-indazol-3-amine]	47 nM	331 nM
CC(C)(C)C#Cc1cc(-c2ccnc(Nc3ncco3)c2)cc2c(N)n[nH]c12 [Example 282, N-(4-(3-Amino-7-(3,3-dimethylbut-1-yn-1-yl)-1H-indazol-5-yl)pyridin-2-yl)oxazol-2-amine]	19 nM	594 nM
CC(C)(C)C#Cc1cc(-c2ccnc(NCCC(F)(F)F)c2)cc2c(N)n[nH]c12 [Example 283, 7-(3,3-Dimethylbut-1-yn-1-yl)-5-(2-((3,3,3-trifluoropropyl)amino)pyridin-4-yl)-1H-indazol-3-amine]	215 nM	> 10000 nM
Nc1n[nH]c2c(C#CC3CC3)cc(-c3ccnc(NC4COC4)c3)cc12 [Example 284, 7-(Cyclopropylethynyl)-5-(2-(oxetan-3-ylamino)pyridin-4-yl)-1H-indazol-3-amine]	12 nM	386 nM
COC(=O)Nc1cc(-c2cc(C#CC3CCOCC3)c3[nH]nc(N)c3c2)ccn1 [Example 285]	37 nM	274 nM
CC(C)(O)C#Cc1cc(-c2ccnc(NC3COC3)c2)cc2c(N)n[nH]c12 [Example 287, 4-(3-Amino-5-(2-(oxetan-3-ylamino)pyridin-4-yl)-1H-indazol-7-yl)-2-methylbut-3-yn-2-ol]	93 nM	2050 nM
Nc1n[nH]c2c(C#CC3CCOCC3)cc(-c3ccnc(NC4COC4)c3)cc12 [Example 288, 5-(2-(Oxetan-3-ylamino)pyridin-4-yl)-7-((tetrahydro-2H-pyran-4-yl)ethynyl)-1H-indazol-3-amine]	24 nM	500 nM
Nc1n[nH]c2c(C#CC3CC3)cc(-c3ccnc(NC(=O)C4CC4)c3)cc12 [Example 289, N-(4-(3-Amino-7-(cyclopropylethynyl)-1H-indazol-5-yl)pyridin-2-yl)cyclopropanecarboxamide]	42 nM	570 nM
CC(C)(O)C#Cc1cc(-c2ccnc(NC(=O)C3CC3)c2)cc2c(N)n[nH]c12 [Example 290, N-(4-(3-Amino-7-(3-hydroxy-3-methylbut-1-yn-1-yl)-1H-indazol-5-yl)pyridin-2-yl)cyclopropanecarboxamide]	55 nM	242 nM
CC(C)(O)CCc1cc(-c2ccnc(NC(=O)C3CC3)c2)cc2c(N)n[nH]c12 [Example 292, N-(4-(3-Amino-7-(3-hydroxy-3-methylbutyl)-1H-indazol-5-yl)pyridin-2-yl)cyclopropanecarboxamide]	9 nM	44 nM
COC(=O)Nc1cc(-c2cc(CCC(C)(C)C)c3[nH]nc(N)c3c2)ccn1 [Example 293, Methyl (4-(3-amino-7-(3,3-dimethylbutyl)-1H-indazol-5-yl)pyridin-2-yl)carbamate]	19 nM	278 nM
CC(C)(C)C#Cc1cc(-c2ccnc3[nH]c(C4CC4)cc23)cc2c(N)n[nH]c12 [Example 294, 5-(2-Cyclopropyl-1H-pyrrolo[2,3-b]pyridin-4-v)-7-(3,3-dimethylbut-1-yn-1-Vl)-1H-indazol-3-amine]	57 nM	322 nM
CC(C)(C)C#Cc1cc(-c2ccnc3[nH]c(C4CCCC4)cc23)cc2c(N)n[nH]c12 [Example 295, 5-(2-Cyclopentyl-1H-pyrrolo[2,3-b]pyridin-4-yl)-7-(3,3-dimethylbut-1-yn-1-yl)-1H-indazol-3-amine]	545 nM	1160 nM
CC(C)(C)C#Cc1cc(-c2ccnc3[nH]c(C(C)(C)C)cc23)cc2c(N)n[nH]c12 [Example 296, 5-(2-(tert-Butyl)-1H-pyrrolo[2,3-b]pyridin-4-yl)-7-(3,3-dimethylbut-1-yn-1-yl)-1H-indazol-3-amine]	449 nM	1080 nM
CC(C)(C)C#Cc1cc(-c2ccnc3[nH]c(CO)cc23)cc2c(N)n[nH]c12 [Example 297, (4-(3-Amino-7-(3,3-dimethylbut-1-yn-1-yl)-1H-indazol-5-yl)-1H-pyrrolo[2,3-b]pyridin-2-yl)methanol]	2 nM	268 nM
CC(C)(C)C#Cc1cc(-c2ccnc3[nH]c(C(C)(C)O)cc23)cc2c(N)n[nH]c12 [Example 298, 2-(4-(3-Amino-7-(3,3-dimethylbut-1-yn-1-yl)-1H-indazol-5-yl)-1H-pyrrolo[2,3-b]pyridin-2-yl)propan-2-ol]	16 nM	540 nM
COC(=O)c1cc2c(-c3cc(C#CC(C)(C)C)c4[nH]nc(N)c4c3)ccnc2[nH]1 [Example 299, Methyl 4-(3-amino-7-(3,3-dimethylbut-1-yn-1-yl)-1H-indazol-5-yl)-1H-pyrrolo[2,3-b]pyridine-2-carboxylate]	10 nM	> 370 nM
CC(C)(C)C#Cc1cc(-c2ccnc3[nH]c(C(F)F)nc23)cc2c(N)n[nH]c12 [Example 300, 5-(2-(Difluoromethyl)-3H-imidazo[4,5-b]pyridin-7-yl)-7-(3,3-dimethylbut-1-yn-1-yl)-1H-indazol-3-amine]	13 nM	1340 nM
CC(C)(C)C#Cc1cc(-c2ccnc3[nH]c(C4CCC4)nc23)cc2c(N)n[nH]c12 [Example 301, 5-(2-Cyclobutyl-3H-imidazo[4,5-b]pyridin-7-yl)-7-(3,3-dimethylbut-1-yn-1-yl)-1H-indazol-3-amine]	82 nM	1240 nM
